Test results taken from patent US8841482B2, “Method for synthesizing rare earth metal extractant” (Shin-Etsu Chemical Co., Ltd., priority 2010, dated 2014).

Assay: extraction/separation performance test (solvent extraction of Pr/Nd, back extraction, ICP atomic emission)
Format: physicochemical
Conditions: aqueous Pr:Nd 1:1, 0.1 mol/L Pr+Nd, 20° C.
Method: The stoichiometric amount of the reaction product, D2EHDGAA in Example 1 or Comparative Example 1 was diluted with hexanol to form an organic solution having a D2EHDGAA concentration of 0.3 mol/L, which might become an organic phase.
A mixed rare earth metal aqueous solution was prepared by dissolving praseodymium chloride and neodymium chloride in water in a molar ratio Pr:Nd of 1:1 and a concentration of 0.1 mol/L of Pr+Nd to form an aqueous solution, which might become an aqueous phase. A separatory funnel was charged with 100 mL of the organic solution and 100 mL of the aqueous solution and shaken at 20° C. for about 20 minutes to effect extraction. After equilibrium was reached, the liquid was allowed to separate into organic and aqueous phases. A separatory funnel was charged with 100 mL of the thus separated organic phase and 100 mL of 5N hydrochloric acid and shaken at 20° C. for about 20 minutes whereby the rare earth element once extracted in the organic phase was back extracted in the hydrochloric acid aqueous solution. The concentrations of praseodymium and neodymium in the aqueous phase and the back-extracted hydrochloric acid aqueous solution were measured by an ICP atomic emission spectrometer ICP-7500 (Shimadzu Corp.).
The stoichiometric amount of the reaction product, D2EHDGAA in Example 5, 6 or Comparative Example 5, 6 was diluted with toluene to form an organic solution having a D2EHDGAA concentration of 0.3 mol/L, which might become an organic phase.

SMILES | Nd/Pr separation factor (D2EHDGAA 0.3 mol/L in kerosene) | Phase separation (D2EHDGAA 0.3 mol/L in kerosene) | Nd/Pr separation factor (D2EHDGAA 0.3 mol/L in toluene) | Phase separation (D2EHDGAA 0.3 mol/L in toluene) | other results
CCCCC(CC)CN(CC(CC)CCCC)C(=O)COCC(=O)O (stereo not drawn) [Example 1, N,N-bis(2-ethylhexyl)-3-oxapentane-1,5-amic acid] | – | – | – | – | Nd/Pr separation factor (D2EHDGAA 0.3 mol/L in hexanol): 2.5; Phase separation (D2EHDGAA 0.3 mol/L in hexanol): definite
CCCCCCCCN(CCCCCCCC)C(=O)COCC(=O)O [Example 2, N,N-dioctyl-3-oxapentane-1,5-amic acid] | – | – | – | – | Nd/Pr separation factor (DODGAA 0.3 mol/L in hexanol): 2.5; Phase separation (DODGAA 0.3 mol/L in hexanol): definite
CCCCC(CC)CN(CC(CC)CCCC)C(=O)COCC(=O)O (stereo not drawn) [Example 3, N,N-bis(2-ethylhexyl)-3-oxapentane-1,5-amic acid] | 2.5 | definite | – | – | –
CCCCC(CC)CN(CC(CC)CCCC)C(=O)COCC(=O)O (stereo not drawn) [Example 4, N,N-bis(2-ethylhexyl)-3-oxapentane-1,5-amic acid] | 2.5 | definite | – | – | –
CCCCC(CC)CN(CC(CC)CCCC)C(=O)COCC(=O)O (stereo not drawn) [Example 5, N,N-bis(2-ethylhexyl)-3-oxapentane-1,5-amic acid] | – | – | 2.5 | definite | –
CCCCC(CC)CN(CC(CC)CCCC)C(=O)COCC(=O)O (stereo not drawn) [Example 6, N,N-bis(2-ethylhexyl)-3-oxapentane-1,5-amic acid] | – | – | 2.5 | definite | –
